Experimental findings from paper PMC8774682, “Inhibitory Mechanism of Baicalein on Acetylcholinesterase: Inhibitory Interaction, Conformational Change, and Computational Simulation” (Foods, 2022) are described below.

Series [1] has as its system PC12 cells. The series is described as follows: Cytotoxicity in PC12 cells (MTT assay). The series is classed as cell-based. Particulars: 1–80 µM, 24 h. The method, then: PC12 cells were purchased from the NanJing KeyGen Biotech Co. Ltd. (Nanjing, China). These cells were cultivated in high-glucose DMEM supplemented with 10% FBS, 100 U/mL of penicillin and 100 µg/mL of streptomycin at 37 °C under a humidified 5% CO2 atmosphere. Baicalein was dissolved in DMSO to prepare a 5 mM stock solution and diluted with serum-free media before use. PC12 cells were seeded into a 96-well plate at the density of 2 × 10 ^4 cells/well (100 μL) and cultured for 24 h. Next, the medium was changed, and the cells were treated with baicalein at 0, 1, 10, 20, 40, and 80 µM. Each concentration had six replicate wells, and the culture was continued for 24 h. To determine the effect of baicalein on cell viability, 20 µL of MTT (5 mg/mL) was added to each well. After 4 h, the resulting formazan crystals were dissolved by adding 150 μL of DMSO for 10–15 min. The absorption (O.D.) of each hole at 570 nm wavelength was measured using an enzyme-labelled instrument (Varioskan LUX; Thermo Fisher Scientific, Waltham, MA, USA). Cell viability was expressed as the percentage of the control.

The target in series [2] is T1, AChE (Electrophorus electricus, UniProt O42275).
T1 construct: purchased Sigma-Aldrich Co. (St. Louis, MO, USA)
The series is described as follows: Time-course test of AChE inactivation kinetics. It is filed as biochemical. The method, then:
The kinetic process and rate constants for enzyme inactivation were determined through the time-course test. Baicalein with concentrations of 2, 4, 8, and 16 µM was used for analysing the time-course. Enzyme activity at each concentration was measured every 3 min for 0–30 min, every 6 min for 30–60 min, and then at 70 and 80 min.

Series [3] deals with T1, AChE. Briefly: AChE activity assay (Ellman's method, modified). It is filed as biochemical. The method, then:
AChE (137 U/mg, Electrophorus electricus) was provided by Sigma-Aldrich Co. (St. Louis, MO, USA), and their stock solutions with 10 U/mL concentrations were prepared with 0.1 M phosphate-buffered saline (pH 7.6) and stored at −20 °C. Baicalein (purity ≥ 98%) was obtained from the National Institute for the Control of Pharmaceutical and Biological Products (Beijing, China) and dissolved in ethanol to prepare the stock solution (5 mM). 5,5-Dithiobis-(2-nitrobenzoic acid) (DTNB), acetylthiocholine iodide (ATCI), galathamine hydrobromide, and 3-(4, 5-dimethylthiazol-2-yl)-2,5-diphenyltetrazolium bromide (MTT) were provided by Aladdin Chemistry Co., Ltd. (Shanghai, China). Foetal bovine serum (FBS) was purchased from Gibco (Carlsbad, CA, USA). Dulbecco’s modified Eagle’s medium (DMEM), trypsin, and other cell culture reagents were purchased from Solarbio (Beijing, China). All remaining reagents were of analytical grade.
AChE activity was evaluated per Ellman’s method, albeit with a slight modification. Quartz cuvettes (3 mL) were utilised for measuring the assay mixture activity. Solutions containing varying amounts of baicalein, phosphate-buffered saline (0.1 M, pH 7.6), and 50 µL of AChE (2 U/mL, 3.4 × 10^−8 M) were cultivated in 30 min at 25 °C. After the pre-incubation period, 50 μL of 5, 5-dithiobis-(2-nitrobenzoic) acid (DNTB, 5 mM) was added. The reaction was then initiated with 50 μL of acetylthiocholine iodide (ATCI, 15 mM). The absorbance at 412 nm was monitored every 5 s with the TU−1901 dual-beam UV–Vis Spectrophotometer (Persee; Beijing, China). The samples were measured thrice, and the average value was considered. Enzyme activity without baicalein was identified to be 100%. […] Galantamine hydrobromide served as the positive control.
A general note: Ellman's reagent forms a yellow product with free thiols.

The target in series [4] is T1, AChE. The series is described as follows: Kinetic analysis of the inhibitory type (Lineweaver–Burk plots, v vs. AChE plots). The series is classed as biochemical. The source says:
The Lineweaver–Burk plots and Michaelis–Menten enzyme kinetics were applied to analyse the inhibitory type. For competitive type inhibition, the dynamic double reciprocal equation was used as follows:(1) 1/v=Km/vmax(1+(I) /Ki)1/(S)+1/vmax (2) Kmapp=Km(I)/Ki+Km where (I) and (S) denote the inhibitor and substrate concentrations, respectively; ν represents the enzyme reaction rate irrespective of the presence of baicalein; νmax is the maximum catalytic reaction rate; Ki, Km, and Kmapp stand for the inhibition constant, Michaelis−Menten constant, and apparent Michaelis constant, respectively.

Series [5] deals with T1, AChE. The series is described as follows: Far-UV CD spectra, secondary structure of AChE. Particulars: c(AChE) = 0.75 µM. The method, then: Far-UV CD spectra were measured using a spectrometer (MOS 450 CD; Bio-Logic, Claix, France) with a 1.0 mm path length quartz cuvette. All the spectra were measured in the 200–240 nm range at 25 °C, and the associated scan speed was 60 nm min^−1. The AChE in the PBS was completely blended with baicalein at varying concentrations and then equilibrated for three min before CD measurements. The spectra were amended by subtracting the spectrum of the buffer with that of baicalein at the same concentration as the sample solution. Three scans were conducted, and the ellipticity in millidegrees indicated the results. The contents of the discrepant secondary structures (α-helix, β-sheet, β-turn, and random coil) from AChE were measured based on CD spectroscopic data following the online SELCON3 program (http://dichroweb.cryst.bbk.ac.uk/html/home.shtml. Accessed on: 18 August 2021).

Series [6] addresses T1, AChE. The series is described as follows: Fluorescence quenching and synchronous fluorescence of AChE. It is filed as binding. As to the method: A spectrofluorometer (model F-7000; Hitachi, Tokyo, Japan) containing a thermostat bath was used to measure the fluorescence spectra. The AChE solution (2.5 mL; 0.17 µM) was introduced into a 1.0 cm path length quartz cell, followed by titration through the successive addition of 2.0 mM of diluted baicalein solution (to obtain the concentration range of 0–16 µM). The well-mixed solutions were set aside for three min for equilibration purposes. The fluorescence spectra were measured in the 290–450 nm range, and the relevant excitation wavelength set was 280 nm at 25 °C, 31°C, and 37 °C. Excitation and emission bandwidths were 2.5 nm. In addition, synchronous fluorescence spectra for AChE with baicalein were conducted by fixing the interval of excitation and emission wavelength constants at 15 nm and 60 nm. Fluorescence data were amended according to our previous reports to erase the re-absorption possibility and the inner filter effects of UV absorption.
The binding constant (Ka) for the AChE–bacalein complex and the binding site number (n) were measured using Equation (3):(3) logF0−F/F=nlogKa−nlog1/(Qt)−(F0−F)(Pt)/F0
In general, four noncovalent interaction forces exist between small molecules and macromolecules, namely hydrogen bonds, van der Waals forces, electrostatic forces, and hydrophobic interactions. To identify the binding forces between bacalein and AChE, the thermodynamic parameters were measured following the Van’t Hoff equation:(4) logKa=−ΔH°/2.303RT+ΔS°/2.303R (5) ΔG°=ΔH°−TΔS° where Ka denotes the binding constant, and R represents the gas constant (8.314 J mol^−1 K^−1). The temperatures (T) used were 25 °C, 31 °C, and 37 °C.

Where [7] appears, read: Van't Hoff equation, 25, 31, 37 °C.

Read-outs that look alike come from different tables or passages of the source.

T1 sequence (O42275 24-633): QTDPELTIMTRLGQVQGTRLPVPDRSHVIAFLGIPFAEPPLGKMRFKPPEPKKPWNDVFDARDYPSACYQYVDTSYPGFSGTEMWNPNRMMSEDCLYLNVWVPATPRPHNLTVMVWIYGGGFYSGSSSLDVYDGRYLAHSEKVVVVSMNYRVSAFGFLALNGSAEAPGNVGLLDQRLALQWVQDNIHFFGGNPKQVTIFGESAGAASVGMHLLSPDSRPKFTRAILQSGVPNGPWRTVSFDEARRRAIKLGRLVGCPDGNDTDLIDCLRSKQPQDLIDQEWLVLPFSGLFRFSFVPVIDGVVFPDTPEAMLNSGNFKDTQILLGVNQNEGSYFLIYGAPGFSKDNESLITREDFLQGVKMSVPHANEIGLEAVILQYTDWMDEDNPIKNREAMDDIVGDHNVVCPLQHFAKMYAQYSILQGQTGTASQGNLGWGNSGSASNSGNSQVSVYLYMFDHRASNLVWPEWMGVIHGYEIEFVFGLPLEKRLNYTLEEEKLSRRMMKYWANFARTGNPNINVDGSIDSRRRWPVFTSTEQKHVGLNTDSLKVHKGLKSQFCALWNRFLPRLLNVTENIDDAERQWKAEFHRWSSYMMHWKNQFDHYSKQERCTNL

In the case of `O=c1cc(-c2ccccc2)oc2cc(O)c(O)c(O)c12` [baicalein, 5,6,7-trihydroxyflavone], in series [1], the “cytotoxicity (cell viability, MTT)” value is listed as “nontoxic”. For the same compound, the “Inactivation rate constant k” value in series [2] (baicalein 2 µM) was 1.48 ± 0.03 ×10^−4 s^−1; in series [2] (baicalein 4 µM) it was 2.42 ± 0.05 ×10^−4 s^−1; in series [2] (baicalein 8 µM) it was 4.01 ± 0.02 ×10^−4 s^−1; in series [2] (baicalein 16 µM) it was 5.18 ± 0.08 ×10^−4 s^−1. For the same compound, in series [3], it took 6.42 ± 0.07 µM to reach half-maximal inhibition (IC50). In series [3] (read-out: final inhibition rate of AChE activity), the inhibition (usually the percentage by which the read-out fell short of the control) at 26.7 µM came out at 90%. The inhibition constant (Ki) (usually a dissociation constant, usually derived from enzyme kinetics or from competition with a known ligand) in series [4] (Lineweaver–Burk, baicalein 0, 4, 8, 10 µM, c(AChE) = 0.57 nM, read-out: Ki (inhibition constant)) stood at 4.32 ± 0.26 µM. Besides, the inhibition type entry in series [4] (double reciprocal plots intersect on the Y axis) is reported as “competitive”. The inhibition reversibility result in series [4] (plots of v vs. AChE concentration, baicalein 0-16 µM) was “reversible”. The figures for the “Random coil content of AChE” value in series [5] (molar ratio baicalein:AChE 2:1) and in series [5] (molar ratio baicalein:AChE 6:1) were 25.36 ± 0.29% and 21.71 ± 0.47%, respectively. Further, the entries for the “α-Helix content of AChE” value in series [5] (molar ratio baicalein:AChE 2:1) and in series [5] (molar ratio baicalein:AChE 6:1) were 38.82 ± 0.08% and 42.53 ± 0.35%, respectively. Moreover, the entries for the “β-Sheet content of AChE” value in series [5] (molar ratio baicalein:AChE 2:1) and in series [5] (molar ratio baicalein:AChE 6:1) were 14.57 ± 0.13% and 7.73 ± 0.03%, respectively. Besides, the “β-Turn content of AChE” value stood at 21.42 ± 0.57% in series [5] (molar ratio baicalein:AChE 2:1) and 28.15 ± 0.89% in series [5] (molar ratio baicalein:AChE 6:1). In series [6] (25-37 °C), the “bimolecular quenching constant Kq, magnitude order” value is listed as ~10^13 L mol^−1 s^−1. Further, the Kd is ~100 µM in series [6] (25-37 °C, read-out: binding constant, order of magnitude); 15 µM in series [6] (25 °C, read-out: binding constant Ka (converted)); 17.1 µM in series [6] (31 °C, read-out: binding constant Ka (converted)); 19.6 µM in series [6] (37 °C, read-out: binding constant Ka (converted)). Further, the “binding site number n” value in series [6] (25 °C) is 0.88 ± 0.01; in series [6] (31 °C) it was 0.93 ± 0.03; in series [6] (37 °C) it was 1.13 ± 0.02. Also, the “quenching constant KSV” value in series [6] (25 °C) is reported as 6.45 ± 0.02 ×10^4 L mol^−1; in series [6] (31 °C) it was 5.78± 0.03 ×10^4 L mol^−1; in series [6] (37 °C), 5.22± 0.07 ×10^4 L mol^−1. For the same compound, the “∆G°” value was -5.428 ± 0.014 kcal/mol in series [6] (25 °C), -5.457 ± 0.0072 kcal/mol in series [6] (31 °C) and -5.483 ± 0.019 kcal/mol in series [6] (37 °C). Further, in series [6] (setting [7]), the “∆H°” value was -4.065 ± 0.0048 kcal/mol. Also, in series [6] (setting [7]), the “∆S°” value was 19.15 ± 0.09 J mol^−1 K^−1. Besides, in series [6] (Δλ = 15 nm, baicalein up to 16.0 μM, c(AChE) = 0.17 µM), the “synchronous fluorescence quenching ratio RSFQ, Tyr residues” value came to 58.48%. Moreover, the “synchronous fluorescence quenching ratio RSFQ, Trp residues” value in series [6] (Δλ = 60 nm, baicalein up to 16.0 μM, c(AChE) = 0.17 µM) was 63.83%.

For the compound `O=C(O)[C@H]1O[C@@H](Oc2cc3oc(-c4ccccc4)cc(=O)c3c(O)c2O)[C@H](O)[C@@H](O)[C@@H]1O` [baicalin, reference compound], 204 ± 16.5 µM corresponded to half-maximal inhibition in series [3] (IC50).
